Reference: US7462595B2, “Methods for treating cancer-related fatigue” (priority 2004, dated 2008)

Key:
[1] = system: patients with severe CRF (breast cancer or prostate cancer); assay: double-blind, placebo-controlled crossover study of intravenous TRH infusions in idiopathic cancer-related fatigue; assay type: in vivo, human
Description: Patient Selection. Patients with a diagnosis of cancer, in this study, breast cancer; or prostate cancer, are screened for CRF using a brief fatigue inventory (BFI) in an oncology clinic setting. The BFI is a simple 9-item self-administered scale and requires about 5-10 minutes to complete. Patients experiencing a severe level of fatigue (BFI≧7) are identified based on this screening. These patients then undergo additional screening with a comprehensive interview and laboratory assessments (hemoglobin, hematocrit, thyroid stimulating hormone concentration, and electrolytes) to identify and exclude patients with medically reversible or other treatable causes of fatigue (viz. anemia, hypothyroidism, electrolyte abnormalities, significant pain dominating the CRF presentation). […]
The patients selected undergo a comprehensive assessment to investigate different aspects of fatigue. […] Patients are evaluated for two major psychiatric disorders frequently co-occurring with CRF, depressive disorders and anxiety disorders. […]
The study utilizes a double-blind, placebo-controlled crossover design. […], patients are evaluated in the General Clinical Research Unit (GCRC) of the John Dempsey Hospital and receive intravenous infusions of TRH (0.5 mg for the first active drug trial, 1.5 mg for the second active drug trial) or saline in random order following an ABBA crossover design. […]

[2] = system: patients with spinocerebellar degeneration (SCD); conditions: cited from earlier work
[3] = system: patients with severe CRF (breast cancer or prostate cancer); assay: randomized, double-blind, placebo-controlled study of taltirelin in idiopathic cancer-related fatigue; assay type: in vivo, human; conditions: 10 mg vs placebo; after 6 weeks of treatment
Description: Patient Selection. Patients with a diagnosis of cancer, in this study, breast cancer, or prostate cancer, are screened for CRF using a brief fatigue inventory (BFI) in an oncology clinic setting. The BFI is a simple 9-item self-administered scale and requires about 5-10 minutes to complete. Patients experiencing a severe level of fatigue (BFI≧7) are identified based on this screening. […]
Both groups undergo a comprehensive assessment to investigate different aspects of fatigue. […] Patients are also evaluated for two major psychiatric disorders frequently co-occurring with CRF, depressive disorders and anxiety disorders. […]
In the intervention phase of the study, patients receive study medication or placebo based on their group assignments. […] Patients are assessed for their overall status using the clinical global impressions severity of illness scale (CGI-S) at randomization, at week 4 and at the end of the intervention phase. They are also assessed for any global improvement using clinical global impressions improvement scale (CGI-I) at week 4 and at the end of intervention phase. […]

NC(=O)[C@@H]1CCCN1C(=O)[C@H](Cc1cnc[nH]1)NC(=O)[C@@H]1CCC(=O)N1 [TRH, L-pyroglutamyl-L-histidyl-L-prolineamide]
improving cancer related fatigue, change from baseline in mean fatigue scores assessed using the BFI and MFI ([1]; TRH 0.5 mg or 1.5 mg infusion vs placebo (saline), each comparison point during 4 week treatment intervention phase): superior to placebo
improving quality of life, change from baseline in mean quality of life scores assessed using SF-36 ([1]; TRH 0.5 mg or 1.5 mg vs placebo, of treatment): superior to placebo

CN1C(=O)C[C@@H](C(=O)N[C@@H](Cc2c[nH]cn2)C(=O)N2CCC[C@H]2C(N)=O)NC1=O [taltirelin]
safety record and side effect profile ([2]; Phase III clinical trials and post-marketing surveillance in Japan): excellent safety record
efficacy in the treatment of spinocerebellar degeneration (SCD) ([2]; SCD patients): some efficacy

taltirelin
improving cancer related fatigue, change from baseline in mean fatigue scores assessed using BFI and MFI [3]: superior to placebo
improving quality of life, change from baseline in mean quality of life scores assessed using SF-36 [3]: superior to placebo
